Measured values as given in PMC7734590, “Identification of a Selective RelA Inhibitor Based on DSE-FRET Screening Methods” (International Journal of Molecular Sciences, 2020).
Where “and” joins values, the source holds several entries; their conditions need not be identical. Equal values may be shown once. Where a name gives a salt, the structure may show the parent alone. Read-outs that look alike come from different tables or passages of the source.

Key:
RelA = RelA (Homo sapiens, UniProt Q04206); assay: DSE-FRET RelA–DNA binding inhibition; format: biochemical; set-up: Kinetic assay RelA Inhibition % ΔRFU(60 min-0 min) / RelA HTS % Inhibition / RelA Retest % Inhibition Run1 / RelA Retest % Inhibition Run2 / RelA Retest % Inhibition Avg. / Kinetic assay RelA % Inhibition ΔRFU(60 min-0 min): dose or concentration left out as unconfirmed; details: for RelA Retest % Inhibition Avg.: Retest average of Run1 and Run2
Description: Plate-based (384 scale) DNA-binding experiments were carried out with 0.1 µL of 2 mM or 1 mg/mL compound, 2 µL of 80 nM NF-D1 (consisting of NF-01F and NF-14D), 1 µL of 20 ng/µL poly dI-dC, and 6.9 µL of 3.2 pmol protein in binding buffer (10 mM 4-(2-hydroxyethyl)-1-piperazineethanesulfonic acid (HEPES)–NaOH pH 7.9, 50 mM KCl, 0.1 mM ethylenediaminetetraacetic acid (EDTA), 2.5 mM dithiothreitol (DTT), 10% glycerol, and 0.05% Nonidet P40). The plates were incubated for 30 min at room temperature, after which 10 µL of NF-D2 (consisting of NF-02 and NF-13) was added. The plates were centrifuged at 1000 rpm for 30 s, followed by shaking for 30 s using a plate shaker (Biotec). Fluorescence was measured at 528 nm, after excitation at 485 nm, using a multiplate reader (Biotec) over a period of 60 min.

p52 = target: T1, p52 (Homo sapiens, UniProt Q00653); assay: DSE-FRET p52–DNA binding inhibition; format: biochemical; set-up: p52 Retest % Inhibition Run2 / p52 Retest % Inhibition Avg. / Kinetic assay p52 Inhibition % ΔRFU(60 min-0 min) / p52 HTS % Inhibition / p52 Retest % Inhibition Run1: dose or concentration left out as unconfirmed; details: for p52 Retest % Inhibition Avg.: Retest average of Run1 and Run2
T1 sequence (Q00653 1-454 limits assumed): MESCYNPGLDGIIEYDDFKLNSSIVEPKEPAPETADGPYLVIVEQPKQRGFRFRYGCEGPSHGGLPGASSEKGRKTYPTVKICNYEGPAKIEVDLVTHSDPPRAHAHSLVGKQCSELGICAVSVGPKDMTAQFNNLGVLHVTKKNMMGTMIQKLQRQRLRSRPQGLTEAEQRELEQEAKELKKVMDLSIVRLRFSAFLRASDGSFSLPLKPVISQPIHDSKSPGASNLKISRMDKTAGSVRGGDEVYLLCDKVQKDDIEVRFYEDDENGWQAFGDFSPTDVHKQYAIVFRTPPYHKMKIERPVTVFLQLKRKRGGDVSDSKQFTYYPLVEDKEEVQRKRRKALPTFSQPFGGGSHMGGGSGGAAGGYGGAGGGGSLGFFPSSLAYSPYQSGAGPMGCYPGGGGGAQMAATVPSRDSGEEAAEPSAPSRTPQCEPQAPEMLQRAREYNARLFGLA

[1] = retest of known drugs, 1 = judged hit
[2] = HTS, known drugs, 10 µM, read-out: RelA HTS % Inhibition @ 10 µM
[3] = retest, Run1, 10 µM, read-out: RelA Retest % Inhibition @ 10 µM Run1
[4] = retest, Run2, 10 µM, read-out: RelA Retest % Inhibition @ 10 µM Run2
[5] = retest, average of Run1 and Run2, 10 µM, read-out: RelA Retest % Inhibition @ 10 µM Avg.
[6] = HTS, known drugs, 10 µM, read-out: p52 HTS % Inhibition @ 10 µM
[7] = retest, Run1, 10 µM, read-out: p52 Retest % Inhibition @ 10 µM Run1
[8] = retest, Run2, 10 µM, read-out: p52 Retest % Inhibition @ 10 µM Run2
[9] = retest, average of Run1 and Run2, 10 µM, read-out: p52 Retest % Inhibition @ 10 µM Avg.
[10] = HTS, 5 µg/mL, NPDepo hits, read-out: RelA HTS % Inhibition @ 5 µg/mL
[11] = Retest Run1, 5 µg/mL, read-out: RelA Retest % Inhibition @ 5 µg/mL Run1
[12] = Retest Run2, 5 µg/mL, read-out: RelA Retest % Inhibition @ 5 µg/mL Run2
[13] = Retest average of Run1 and Run2, 5 µg/mL, read-out: RelA Retest % Inhibition @ 5 µg/mL Avg.
[14] = kinetic assay, 5 µg/mL, ΔRFU 60 min-0 min, read-out: Kinetic assay @ 5 µg/mL RelA Inhibition % ΔRFU(60 min-0 min)
[15] = kinetic assay, ΔRFU 60 min-0 min

Chain of RelA (Q04206 19-306 limits assumed): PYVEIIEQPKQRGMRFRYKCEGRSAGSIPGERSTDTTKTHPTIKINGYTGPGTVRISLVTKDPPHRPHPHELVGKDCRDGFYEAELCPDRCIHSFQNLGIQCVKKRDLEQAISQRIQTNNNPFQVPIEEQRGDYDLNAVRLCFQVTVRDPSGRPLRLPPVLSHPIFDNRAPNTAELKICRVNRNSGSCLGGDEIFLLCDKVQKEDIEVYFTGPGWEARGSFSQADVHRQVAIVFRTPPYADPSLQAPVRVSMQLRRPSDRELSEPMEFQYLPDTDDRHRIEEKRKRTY

Structure (SMILES): CCN(CC)CCCC(C)Nc1c2ccc(Cl)cc2nc2ccc(OC)cc12 (stereo not shown) [Quinacrine dihydrochloride dihydrate]
- Kinetic assay RelA % Inhibition ΔRFU(60 min-0 min) (RelA; kinetic assay, 60 min-0 min): -17%
- Kinetic assay p52 % Inhibition ΔRFU(60 min-0 min) (p52; kinetic assay, 60 min-0 min): -17%

Structure (SMILES): CC1(C)C(=O)N=C2C1=C(O)C(=O)c1ccccc12 [BVT 948]
- RelA HTS % Inhibition (RelA; HTS, known drugs): 34.4%
- RelA Retest % Inhibition Run1 (RelA): 48.4%
- RelA Retest % Inhibition Run2 (RelA): 67.6%
- RelA Retest % Inhibition Avg. (RelA): 58.0%
- Kinetic assay RelA % Inhibition ΔRFU(60 min-0 min) (RelA; kinetic assay, 60 min-0 min): 21%
- Hit Judgement of: RelA (RelA; [1]): 1
- p52 HTS % Inhibition (p52; HTS, known drugs): 38.2%
- p52 Retest % Inhibition Run1 (p52): 22.0%
- p52 Retest % Inhibition Run2 (p52): 33.7%
- p52 Retest % Inhibition Avg. (p52): 27.8%
- Kinetic assay p52 % Inhibition ΔRFU(60 min-0 min) (p52; kinetic assay, 60 min-0 min): 7%
- Hit Judgement of: p52 (p52; [1]): 1

Structure (SMILES): Cc1[nH]c(/C=C2\C(=O)Nc3ccccc32)c(C)c1CCC(=O)O [SU 6668]
- inhibition at 10 µM (RelA; [2]): 29.9%
- inhibition at 10 µM (RelA; kinetic assay, 60 min-0 min, 10 µM, read-out: Kinetic assay @ 10 µM RelA % Inhibition ΔRFU(60 min-0 min)): -15%
- inhibition at 10 µM (RelA; [3]): 32.3%
- inhibition at 10 µM (RelA; [4]): 36.4%
- inhibition at 10 µM (RelA; [5]): 34.3%
- inhibition at 10 µM (p52; [6]): 33.8%
- inhibition at 10 µM (p52; kinetic assay, 60 min-0 min, 10 µM, read-out: Kinetic assay @ 10 µM p52 % Inhibition ΔRFU(60 min-0 min)): -12%
- inhibition at 10 µM (p52; [7]): 29.3%
- inhibition at 10 µM (p52; [8]): 32.3%
- inhibition at 10 µM (p52; [9]): 30.8%

Structure (SMILES): O=C(O)c1cc(O)c2c(c1)[C@@H]([C@H]1c3cc(C(=O)O)cc(O)c3C(=O)c3c(O[C@@H]4O[C@H](CO)[C@@H](O)[C@H](O)[C@H]4O)cccc31)c1cccc(O[C@@H]3O[C@H](CO)[C@@H](O)[C@H](O)[C@H]3O)c1C2=O [Sennoside B]
- Hit Judgement of: RelA (RelA; 1 = judged hit after retest): 1
- inhibition at 5 µg/mL (RelA; [10]): 87.4%
- inhibition at 5 µg/mL (RelA; [11]): 74.5%
- inhibition at 5 µg/mL (RelA; [12]): 85.1%
- inhibition at 5 µg/mL (RelA; [13]): 79.8%
- inhibition at 5 µg/mL (RelA; [14]): 73%
- Hit Judgement of: p52 (p52; 1 = judged hit after retest): 1

Structure (SMILES): O=C(O)CSCC(=O)N1CCn2c3c(c4cc(C5CCCCC5)ccc42)CCCC31 (stereo not shown)
- RelA HTS % Inhibition (RelA; HTS, NPDepo hits): 35.7%
- RelA Retest % Inhibition Run1 (RelA): 22.2%
- RelA Retest % Inhibition Run2 (RelA): 23.7%
- RelA Retest % Inhibition Avg. (RelA): 22.9%
- Kinetic assay RelA Inhibition % ΔRFU(60 min-0 min) (RelA; [15]): -2.34%
- p52 HTS % Inhibition (p52; HTS, NPDepo hits): 19.2%
- p52 Retest % Inhibition Run1 (p52): 18.8%
- p52 Retest % Inhibition Run2 (p52): 22.6%
- p52 Retest % Inhibition Avg. (p52): 20.7%
- Kinetic assay p52 Inhibition % ΔRFU(60 min-0 min) (p52; [15]): -3.52%

Structure (SMILES): COc1cc(/C=C/C(=O)CC(=O)/C=C/c2ccc(O)c(OC)c2)ccc1O [Curcumin]
- inhibition at 5 µg/mL (RelA; [10]): 116%
- inhibition at 5 µg/mL (RelA; [11]): 135%
- inhibition at 5 µg/mL (RelA; [12]): 149%
- inhibition at 5 µg/mL (RelA; [13]): 142%
- inhibition at 5 µg/mL (RelA; [14]): -84%

Structure (SMILES): CCN(CC)CCCC(C)Nc1c2ccc(Cl)cc2nc2ccc(OC)cc12 (stereo not shown) [QUINACRINE HYDROCHLORIDE]
- inhibition at 10 µM (RelA; [2]): 56.7%
- Kinetic assay RelA % Inhibition ΔRFU(60 min-0 min) (RelA; kinetic assay, 60 min-0 min): -18%
- inhibition at 10 µM (RelA; [3]): 60.6%
- inhibition at 10 µM (RelA; [4]): 66.3%
- inhibition at 10 µM (RelA; [5]): 63.5%
- inhibition at 10 µM (p52; [6]): 70.9%
- Kinetic assay p52 % Inhibition ΔRFU(60 min-0 min) (p52; kinetic assay, 60 min-0 min): -16%
- inhibition at 10 µM (p52; [7]): 60.7%
- inhibition at 10 µM (p52; [8]): 69.7%
- inhibition at 10 µM (p52; [9]): 65.2%

Structure (SMILES): O=C1Nc2ccc(I)cc2/C1=C/c1cc(Br)c(O)c(Br)c1 [GW 5074]
- Kinetic assay RelA % Inhibition ΔRFU(60 min-0 min) (RelA; kinetic assay, 60 min-0 min): -17%
- Kinetic assay p52 % Inhibition ΔRFU(60 min-0 min) (p52; kinetic assay, 60 min-0 min): -18%

Structure (SMILES): COc1cccc2c1C(=O)c1c(O)c3c(c(O)c1C2=O)C[C@@](O)(C(=O)CO)C[C@@H]3O[C@H]1C[C@H](N)[C@H](O)[C@H](C)O1 [Doxorubicin hydrochloride]
- Kinetic assay RelA % Inhibition ΔRFU(60 min-0 min) (RelA; kinetic assay, 60 min-0 min): -15%
- Kinetic assay p52 % Inhibition ΔRFU(60 min-0 min) (p52; kinetic assay, 60 min-0 min): -15% and -17%

Structure (SMILES): COc1cccc2c1C(=O)c1c(O)c3c(c(O)c1C2=O)C[C@@](O)(C(C)=O)C[C@@H]3O[C@H]1C[C@H](N)[C@H](O)[C@H](C)O1 [Daunomycin]
- inhibition at 5 µg/mL (p52; HTS, 5 µg/mL, NPDepo hits, read-out: p52 HTS % Inhibition @ 5 µg/mL): 77.8%
- inhibition at 5 µg/mL (p52; Retest Run1, 5 µg/mL, read-out: p52 Retest % Inhibition @ 5 µg/mL Run1): 92.7%
- inhibition at 5 µg/mL (p52; Retest Run2, 5 µg/mL, read-out: p52 Retest % Inhibition @ 5 µg/mL Run2): 99%
- inhibition at 5 µg/mL (p52; Retest average of Run1 and Run2, 5 µg/mL, read-out: p52 Retest % Inhibition @ 5 µg/mL Avg.): 95.9%
- inhibition at 5 µg/mL (p52; kinetic assay, 5 µg/mL, ΔRFU 60 min-0 min, read-out: Kinetic assay @ 5 µg/mL p52 Inhibition % ΔRFU(60 min-0 min)): -4.66%

Structure (SMILES): COc1cccc2c1C(=O)c1c(O)c3c(c(O)c1C2=O)C[C@@](O)(C(C)=O)C[C@@H]3O[C@H]1C[C@H](N)[C@H](O)[C@H](C)O1 [Daunorubicin hydrochloride]
- Kinetic assay p52 % Inhibition ΔRFU(60 min-0 min) (p52; kinetic assay, 60 min-0 min): -16% and -18%

Structure (SMILES): Cc1ccc(C(=O)Nc2ccc(S(=O)(=O)O)c3cc(S(=O)(=O)O)cc(S(=O)(=O)O)c23)cc1NC(=O)c1cccc(NC(=O)Nc2cccc(C(=O)Nc3cc(C(=O)Nc4ccc(S(=O)(=O)O)c5cc(S(=O)(=O)O)cc(S(=O)(=O)O)c45)ccc3C)c2)c1 [Suramin, reference compound]
- p52–DNA binding inhibition at 50 µM (p52; 96-well plates, 50 µM): inhibited both RelA–DNA and p52–DNA binding
- suppression of p52–DNA binding (p52; HTS, 10 µM or 5 µg/mL): less than 10%

Structure (SMILES): COc1cccc2c1C(=O)c1c(O)c3c(c(O)c1C2=O)C[C@@](O)(C(C)=O)C[C@@H]3O[C@H]1C[C@H](N)[C@H](O)[C@H](C)O1 [Daunorubicin(Daunomycin)]
- p52 HTS % Inhibition (p52; HTS, NPDepo hits): 78.5%
- p52 Retest % Inhibition Run1 (p52): 79.2%
- p52 Retest % Inhibition Run2 (p52): 84.3%
- p52 Retest % Inhibition Avg. (p52): 81.7%
- Kinetic assay p52 Inhibition % ΔRFU(60 min-0 min) (p52; [15]): -7%

Structure (SMILES): COc1cccc2c1C(=O)c1c(O)c3c(c(O)c1C2=O)C[C@@](O)(C(C)=O)C[C@@H]3O[C@H]1C[C@H](N)[C@H](O)[C@H](C)O1 [DAUNORUBICIN]
- Kinetic assay p52 % Inhibition ΔRFU(60 min-0 min) (p52; kinetic assay, 60 min-0 min): -16%

Structure (SMILES): Cc1ccc(C(=O)Nc2ccc(S(=O)(=O)[O-])c3cc(S(=O)(=O)[O-])cc(S(=O)(=O)[O-])c23)cc1NC(=O)c1cccc(NC(=O)Nc2cccc(C(=O)Nc3cc(C(=O)Nc4ccc(S(=O)(=O)[O-])c5cc(S(=O)(=O)[O-])cc(S(=O)(=O)[O-])c45)ccc3C)c2)c1.[Na+].[Na+].[Na+].[Na+].[Na+].[Na+] [Suramin hexasodium salt]
- Kinetic assay @ 50 µM p52 Inhibition % ΔRFU(120 min-0 min) (p52; 96 well plate, 50 µM, 120 min-0 min): 73%
- p52 HTS % Inhibition (p52; HTS, known drugs): 4.7%
- p52 Retest % Inhibition Run1 (p52): 4.9%
- p52 Retest % Inhibition Run2 (p52): 5.3%
- p52 Retest % Inhibition Avg. (p52): 5.1%
- Kinetic assay p52 % Inhibition ΔRFU(60 min-0 min) (p52; kinetic assay, 60 min-0 min): 7%

Structure (SMILES): COc1cccc2c1C(=O)c1c(O)c3c(c(O)c1C2=O)C[C@@](O)(C(=O)CO)C[C@@H]3O[C@H]1C[C@H](N)[C@H](O)[C@H](C)O1 [Doxorubicin]
- inhibition at 5 µg/mL (RelA; [10]): 70.5%
- inhibition at 5 µg/mL (RelA; [11]): 69.2%
- inhibition at 5 µg/mL (RelA; [12]): 78.3%
- inhibition at 5 µg/mL (RelA; [13]): 73.8%
- inhibition at 5 µg/mL (RelA; [14]): -12%
